The record followed here is US20140073694A1, “CYSTAMINE ANALOGUES FOR THE TREATMENT OF PARKINSON'S DISEASE” (UNIVERSITE LAVAL, priority 2011, published 2014).

For one data set, the system named is MPTP-treated mice. The data set can be described thus: Subacute MPTP mouse model of Parkinson's disease: nigral DAergic markers (TH, Nurr1, DAT). The class given is in vivo, C57BL/6 mice. The method, then:
Young adult (9-week old, 25 grams) male C57BL/6 mice were purchased from Charles River Laboratories (Montréal, QC, Canada). Animals were housed 4 per cage under standard conditions with free access to food and water, randomized and handled under the same conditions by one investigator. All experiments were performed in accordance with the Canadian Council on Animal Care and were approved by the Institutional Committee of the Centre Hospitalier de l'Université Laval (CHUL, Québec, Canada). Throughout the experiment, the health status of all mice included in the study was closely monitored for weight loss or other signs of health-related issues. All efforts were made to minimize animal pain and discomfort.
Mice received 7 i.p. injections, twice on the first 2 days of the experimental protocol at an interval of 12 hrs and once a day on 3 subsequent days, of either saline 0.9% or MPTP-HCl (20 mg/kg free base; Sigma, St. Louis, Mo.) dissolved in saline 0.9% prepared fresh (Tremblay et al., 2006; Gibrat et al., 2007; Gibrat et al., 2010).
Beneficial effects of cystamine in parkinsonian mice (cystamine dihydrochloride, Sigma, St. Louis, Mo.) were evaluated with a dose of 10 mg/kg dissolved in sterile saline 0.9% and prepared fresh for daily i.p. injection 1 hr before MPTP administration. The choice of dose and regime of administration was based on our previous findings (Tremblay et al., 2006; Gibrat et al., 2010). The first injection of cystamine was administered either 1) 2 days before the start of MPTP injections (pre-treatment) or 2) 24 hours after the last MPTP dose (post-treatment), and the treatment continued daily for 14 days post injury.
The effects of cystamine on the MPTP toxicity were studied in the following experimental groups: Group I, Saline+Saline; Group II, Saline+Cystamine post-treatment; Group III; Saline+Cystamine pre-treatment; Group IV, MPTP+Saline; Group V, MPTP+Cystamine post-treatment, Group VI, MPTP+Cystamine pre-treatment. In total, 96 mice (n=16 per group) were utilized, monitored daily for weight variation, and ultimately sacrificed by perfusion 24 hrs after the last cystamine (or vehicle) injection.
Experiment 1. All mice were subjected to intracardiac perfusion with RNAse free 0.1 M phosphate-buffered saline (PBS). After intracardiac perfusion, brains were collected and the two hemispheres were separated. The left hemisphere was post-fixed in 4% paraformaldehyde (PFA) for 48 hrs and transferred to 20% sucrose in 0.1 M PBS for cryoprotection. Coronal brain sections of 25 μm thickness were cut onto a freezing microtome (Leica Microsystems, Montreal, QC) and serially collected in anti-freeze solution (monophosphate sodium monobasic 0.2 M, monophosphate sodium dibasic 0.2 M, ethylene glycol 30%, glycerol 20%) and kept at −20° C. until use. Sections from the left hemisphere were utilized for additional immunohistochemistry and in situ hybridization protocols. The right hemispheres were snap-frozen in 2-methyl-butane and then stored at −80° C. until cryostat dissection for HPLC and western-blot (WB) analyses.
For assessment of DAergic neuronal-loss, immunohistochemistry against the enzyme TH was performed as previously described (Tremblay et al., 2006; Gibrat et al., 2009). Briefly, free-floating sections, after several washes and blocking preincubation, were incubated overnight at 4° C. with a rabbit anti-TH (Pel-Freez, Rogers, Ark.; 1:5000). Sections were then incubated for 1 hr at room temperature (RT) in a solution containing biotinylated goat anti-rabbit IgG (Vector Laboratories, Burlington, ON; 1:1500) and subsequently placed in a solution containing avidin-biotin peroxidase complex (ABC Elite kit; Vector Laboratories, Burlington, ON) for 1 hr at RT. Finally, the reaction was developed in 3,3′ diaminobenzidine tetrahydrochloride (DAB) solution (Sigma, St. Louis, Mo.) and 0.1% of 30% hydrogen peroxide (Sigma, St. Louis, Mo.) at RT. […]

Details of data set [1]: species or system C57BL/6 mice. The note with it: in vivo, ip, 200 mg/kg. The procedure: Young adult (9-week old, 25 g) male C57BL/6 mice were purchased from Charles River Laboratories (Montréal, QC, Canada). Animals were housed four per cage under standard conditions with free access to food and water, randomized and handled under the same conditions by one investigator. All experiments were performed in accordance with the Canadian Council on Animal Care and were approved by the Institutional Committee of the Centre Hospitalier de l'Université Laval (CHUL). Throughout the experiment, the health status of all mice included in the study was closely monitored. To clearly identify the active intermediate following cystamine injection, as well as to understand its systemic and cerebral metabolism, a single intraperitoneal (i.p.) injection of cystamine was administered to normal adult C57BL/6 male mice using three different doses: 10, 50, and 200 mg/kg, as determined in prior publications (Tremblay et al. 2006; Gibrat et al. 2010). These doses were ultimately compared with saline injections. Cystamine was dissolved in sterile saline (0.9%) and injected 1, 3, 12, 24 and 48 h before killing. Animals were sacrificed under deep anesthesia with ketamine/xylazine and perfused via intracardiac infusion with 0.1 M phosphate-buffered saline. […]

[2] abbreviates: post-treatment: 10 mg/kg i.p. daily started 24 h after last MPTP dose, 14 days.
Where [3] appears, read: pre-treatment: 10 mg/kg i.p. daily started 2 days before MPTP.

Each structure is given as a SMILES string. “Also recorded” adds a separate entry of the source.

As to `NCCSSCCN` [cystamine, Cystamine], in the data set with MPTP-treated mice (setting [2]), the “DAT mRNA / DAT mRNA expressing cells in the SNpc” value was “significant recovery; also recorded: higher level; also recorded: comparable number of DAT-positive cells as saline treated animals”; the “Nurr1 mRNA levels in the SNpc” value is listed as “significant recovery; also recorded: normal levels of Nurr1 mRNA; also recorded: higher level of Nurr1”; the “TH-positive and Nissl-positive neurons in the SNpc, stereological count” value is “significant recovery of the number of nigral DAergic neurons; also recorded: significantly greater number of TH-positive and Nissl-positive neurons”. In the data set with MPTP-treated mice (setting [3]), the “Nurr1 mRNA levels in the SNpc” value was “normalization of Nurr1 mRNA levels” and the “SNpc neurons expressing DAT” value is recorded as “normalization; also recorded: comparable number of DAT-positive cells as saline treated animals”. In addition, in the data set with MPTP-treated mice (pre-treatment: 10 mg/kg i.p. daily started 2 days before MPTP, continued 14 days post injury), the “TH-immunoreactive (TH-positive) neurons in the SNpc, stereological count” value is reported as “increase density of TH-immunoreactive cells in the SNpc”. Besides, in data set [1] (male, C57BL/6, mouse), the “duration of hypothermia and somnolence signs” value was “approximately 2 h”. Besides, in data set [1] (mouse), the clinical signs entry was “signs of hypothermia (shivering) and somnolence (closing of eyelids)”.
